Ends that are not written are not given here. * marks the point of attachment. pNA = O=[N+]([O-])c1ccc(N*)cc1
Test system: chymotrypsin
Assay: Chymotrypsin-coupled proline isomerization assay (pNA release)
Assay type: biochemical
Settings: 10 μl of 7.8 mM pNA peptide per 1 ml, 395 nm, every 0.6 s for 20 s, first 0.6–10.2 s, mean initial rate, n = 4–5
Description: Figure 6 K14ac Promotes P16trans (A) Relative binding ± SEM (n = 2–11) assessed by surface plasmon resonance of purified recombinant Spt7 bromodomain (residues 363–619) to the indicated H3 peptides (11–26). (B) Coomassie-stained gel showing a pull-down experiment, quantified relative to the K18ac peptide, with the indicated H3 peptides and the purified recombinant Spt7 bromodomain (n = 3). (C) A chymotrypsin-coupled assay for proline isomers using synthetic hexamers based on GGKAPF-pNA (unmodified). pNA is released by chymotrypsin cleavage only from the trans-proline-containing peptide. (D) K14ac and substitutions at K14 influence isomerization at A15-P16 and pNA release, expressed as mean initial rate ± SEM (n = 4–5) over the first 0.6–10.2 s of the reaction. (E) Schematic showing how K14ac or the K14R substitution influence A15-P16 conformation. […]
Saccharomyces cerevisiae strains used in this study are shown in Supplemental Experimental Procedures. […] Quantitation was performed using ImageJ software. […] The P16 proline isomerase assay was performed as described ([Shan et al., 1994]) using 10 μl of 7.8 mM pNA peptide (Proteogenix) solution per 1 ml assay reaction and pNA release monitored at 395 nm. […] Sensorgrams, binding curves, and Kd values were analyzed with BIA T100 and T200 evaluation software (GE Healthcare) using a 1:1 binding model. […]

## GGKAPF-pNA [unmodified peptide]
  Initial rate of cleavage (pNA release): comparable to that reported previously in a similar assay

Source: publication PMC4157579, “Lysine Acetylation Controls Local Protein Conformation by Influencing Proline Isomerization” (Molecular Cell, 2014)
